Results on 34 molecules are retold here after ChEMBL document CHEMBL1140830, “Ergoline derivatives as highly potent and selective antagonists at the somatostatin sst 1 receptor” (Bioorg Med Chem Lett, 2008).

Each structure is given as a SMILES string.

Series [1] concerns the target Somatostatin receptor type 1 (Rattus norvegicus, UniProt P28646). Put plainly: Displacement of [125I]SRIF14 from sst1 receptor in rat cortex.
Series [2] addresses Somatostatin receptor type 2 (Rattus norvegicus, UniProt P30680). The series can be described thus: Displacement of [125I][Tyr3]octreotide from sst2 receptor in rat cortex. For orientation: Displacement assays read how much labelled ligand stays bound in the presence of the test substance.
Series [3] deals with T1, Somatostatin receptor type 1 (Homo sapiens, UniProt P30872). The series can be described thus: Antagonist activity at human recombinant sst1 receptor in CCl39 cells assessed as SRIF14-induced inhibition of forskolin-stimulated adenylate cyclase activity. It counts as functional, cell-based.
Series [4] addresses T1, Somatostatin receptor type 1. The series can be described thus: Antagonist activity at human recombinant sst1 receptor assessed as inhibition of SRIF28-induced luciferase activity. It counts as functional.
Series [5] has the same target. The series can be described thus: Binding affinity to human recombinant sst1 receptor.
The target in series [6] is Somatostatin receptor type 4 (Homo sapiens, UniProt P31391). Put plainly: Binding affinity to human recombinant sst4 receptor.
Series [7] addresses Somatostatin receptor type 5 (Homo sapiens, UniProt P35346). Put plainly: Binding affinity to human recombinant sst5 receptor.
Series [8] concerns the target Somatostatin receptor type 2 (Homo sapiens, UniProt P30874). Put plainly: Binding affinity to human recombinant sst2 receptor.
The target of series [9] is Somatostatin receptor type 3 (Homo sapiens, UniProt P32745). The series can be described thus: Binding affinity to human recombinant sst3 receptor.
In series [10] the target is T2, 5-hydroxytryptamine receptor 1A (Homo sapiens, UniProt P08908).
T2 sequence (P08908 whole entry): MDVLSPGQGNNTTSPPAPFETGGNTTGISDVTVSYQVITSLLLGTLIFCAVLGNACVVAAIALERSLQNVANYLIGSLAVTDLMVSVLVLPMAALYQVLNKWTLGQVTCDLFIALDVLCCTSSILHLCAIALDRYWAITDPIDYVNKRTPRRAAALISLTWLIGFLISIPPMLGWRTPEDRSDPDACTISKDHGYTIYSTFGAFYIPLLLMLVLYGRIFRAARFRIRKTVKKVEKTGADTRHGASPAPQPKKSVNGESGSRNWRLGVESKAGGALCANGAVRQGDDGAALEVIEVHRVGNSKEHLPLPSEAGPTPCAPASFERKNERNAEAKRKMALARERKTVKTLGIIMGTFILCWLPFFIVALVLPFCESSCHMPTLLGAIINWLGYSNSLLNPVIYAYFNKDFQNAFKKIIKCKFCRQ
The series can be described thus: Binding affinity to human 5HT1A receptor.

The target in series [11] is T3, D(4) dopamine receptor (Homo sapiens, UniProt P21917).
T3 sequence (P21917 whole entry): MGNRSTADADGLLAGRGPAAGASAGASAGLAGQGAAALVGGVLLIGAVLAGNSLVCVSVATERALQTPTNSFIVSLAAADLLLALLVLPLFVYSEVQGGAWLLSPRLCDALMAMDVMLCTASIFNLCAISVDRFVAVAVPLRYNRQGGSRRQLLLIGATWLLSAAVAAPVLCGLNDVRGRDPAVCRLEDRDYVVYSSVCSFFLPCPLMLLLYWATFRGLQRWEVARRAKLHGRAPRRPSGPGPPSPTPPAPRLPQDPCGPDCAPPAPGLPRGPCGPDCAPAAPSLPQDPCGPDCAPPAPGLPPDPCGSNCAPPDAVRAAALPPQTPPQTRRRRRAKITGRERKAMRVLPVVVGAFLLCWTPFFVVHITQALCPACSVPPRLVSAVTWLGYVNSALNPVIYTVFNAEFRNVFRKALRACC
The series can be described thus: Binding affinity to human dopamine D4 receptor.

Series [12] is described as follows: Ratio of drug level in brain to plasma in rat at 30 umol/kg after 10 mins. The format is ADME. As to conditions: brain and plasma.
Series [13] in a line: Ratio of drug level in brain to plasma in rat at 30 umol/kg after 24 hrs. The format is ADME. As to conditions: brain and plasma.
Series [14] can be described thus: Oral bioavailability in rat. The format is ADME, organism-based. As to conditions: in vivo.
Series [15] addresses D(2) dopamine receptor (Homo sapiens, UniProt P14416). Put plainly: Binding affinity to human dopamine D2 receptor.

Sequence of Somatostatin receptor type 5 (P35346 whole entry): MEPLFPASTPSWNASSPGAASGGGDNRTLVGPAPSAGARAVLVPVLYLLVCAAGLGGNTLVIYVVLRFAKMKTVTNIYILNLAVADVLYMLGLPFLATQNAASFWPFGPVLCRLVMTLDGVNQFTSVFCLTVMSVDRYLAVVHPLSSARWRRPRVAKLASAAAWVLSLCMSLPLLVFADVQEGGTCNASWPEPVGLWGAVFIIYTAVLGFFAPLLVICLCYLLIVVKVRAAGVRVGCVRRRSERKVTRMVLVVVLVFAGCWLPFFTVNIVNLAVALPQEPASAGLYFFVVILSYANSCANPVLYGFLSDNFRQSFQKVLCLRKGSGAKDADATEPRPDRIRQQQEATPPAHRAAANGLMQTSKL
Sequence of Somatostatin receptor type 1 (Rattus norvegicus, UniProt P28646) (P28646 whole entry): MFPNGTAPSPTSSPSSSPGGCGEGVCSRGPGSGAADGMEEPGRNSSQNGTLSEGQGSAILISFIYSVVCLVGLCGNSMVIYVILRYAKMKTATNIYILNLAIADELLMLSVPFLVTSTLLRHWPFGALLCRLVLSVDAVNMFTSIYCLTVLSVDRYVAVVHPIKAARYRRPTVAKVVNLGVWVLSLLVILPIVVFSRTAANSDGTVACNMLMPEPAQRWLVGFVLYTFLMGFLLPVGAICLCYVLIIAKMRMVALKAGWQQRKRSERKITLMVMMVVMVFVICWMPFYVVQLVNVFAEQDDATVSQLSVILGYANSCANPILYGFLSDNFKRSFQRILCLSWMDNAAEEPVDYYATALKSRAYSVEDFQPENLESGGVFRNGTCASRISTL
Sequence of Somatostatin receptor type 2 (Rattus norvegicus, UniProt P30680) (P30680 whole entry): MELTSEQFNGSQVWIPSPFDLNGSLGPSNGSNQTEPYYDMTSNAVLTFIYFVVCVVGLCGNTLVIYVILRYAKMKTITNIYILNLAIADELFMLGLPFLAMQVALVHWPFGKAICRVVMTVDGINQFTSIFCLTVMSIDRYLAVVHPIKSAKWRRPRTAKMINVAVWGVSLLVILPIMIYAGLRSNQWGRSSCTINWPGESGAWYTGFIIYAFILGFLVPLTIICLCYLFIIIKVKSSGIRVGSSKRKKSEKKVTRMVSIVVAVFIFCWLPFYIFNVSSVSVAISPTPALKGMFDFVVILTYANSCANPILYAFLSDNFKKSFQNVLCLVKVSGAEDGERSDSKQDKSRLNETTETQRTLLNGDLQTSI
T1 sequence (P30872 whole entry): as the sequence (P28646 whole entry) above, with P8S, T11S, S16P, G20S, V25G, C26G, S32A, S45A, A385T, S389T counted along it
Sequence of Somatostatin receptor type 4 (P31391 whole entry): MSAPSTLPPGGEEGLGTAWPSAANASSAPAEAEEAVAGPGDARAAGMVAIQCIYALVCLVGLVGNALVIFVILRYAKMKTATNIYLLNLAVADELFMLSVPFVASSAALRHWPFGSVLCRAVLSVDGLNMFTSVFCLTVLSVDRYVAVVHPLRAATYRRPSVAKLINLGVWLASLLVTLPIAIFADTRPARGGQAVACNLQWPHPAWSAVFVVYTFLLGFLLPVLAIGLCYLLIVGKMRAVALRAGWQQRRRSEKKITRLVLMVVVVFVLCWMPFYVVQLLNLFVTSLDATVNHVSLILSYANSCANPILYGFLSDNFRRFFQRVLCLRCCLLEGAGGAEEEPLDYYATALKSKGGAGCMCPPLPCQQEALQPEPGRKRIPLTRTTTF
Sequence of Somatostatin receptor type 3 (P32745 whole entry): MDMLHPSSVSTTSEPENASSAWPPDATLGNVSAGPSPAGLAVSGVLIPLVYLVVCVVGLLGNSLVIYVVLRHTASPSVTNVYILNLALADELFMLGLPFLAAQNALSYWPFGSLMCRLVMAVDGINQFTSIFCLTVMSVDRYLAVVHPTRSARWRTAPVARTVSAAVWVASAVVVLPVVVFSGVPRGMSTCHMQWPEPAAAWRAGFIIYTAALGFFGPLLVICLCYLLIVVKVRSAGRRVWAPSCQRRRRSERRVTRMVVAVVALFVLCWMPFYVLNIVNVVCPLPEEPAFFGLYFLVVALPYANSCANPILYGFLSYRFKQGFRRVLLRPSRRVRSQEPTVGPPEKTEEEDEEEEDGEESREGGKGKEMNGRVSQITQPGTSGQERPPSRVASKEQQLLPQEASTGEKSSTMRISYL
Sequence of Somatostatin receptor type 2 (Homo sapiens, UniProt P30874) (P30874 whole entry): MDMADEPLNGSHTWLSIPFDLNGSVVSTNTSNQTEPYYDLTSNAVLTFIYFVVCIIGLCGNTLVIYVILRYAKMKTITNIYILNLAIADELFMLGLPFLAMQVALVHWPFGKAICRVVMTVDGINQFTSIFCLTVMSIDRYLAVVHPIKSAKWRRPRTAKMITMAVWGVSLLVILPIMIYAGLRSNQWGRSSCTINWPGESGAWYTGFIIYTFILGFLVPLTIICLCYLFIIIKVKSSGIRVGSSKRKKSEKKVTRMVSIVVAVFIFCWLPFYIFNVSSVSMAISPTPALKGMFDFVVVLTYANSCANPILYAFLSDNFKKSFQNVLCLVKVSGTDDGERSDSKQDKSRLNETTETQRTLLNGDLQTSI
Sequence of D(2) dopamine receptor (P14416 whole entry): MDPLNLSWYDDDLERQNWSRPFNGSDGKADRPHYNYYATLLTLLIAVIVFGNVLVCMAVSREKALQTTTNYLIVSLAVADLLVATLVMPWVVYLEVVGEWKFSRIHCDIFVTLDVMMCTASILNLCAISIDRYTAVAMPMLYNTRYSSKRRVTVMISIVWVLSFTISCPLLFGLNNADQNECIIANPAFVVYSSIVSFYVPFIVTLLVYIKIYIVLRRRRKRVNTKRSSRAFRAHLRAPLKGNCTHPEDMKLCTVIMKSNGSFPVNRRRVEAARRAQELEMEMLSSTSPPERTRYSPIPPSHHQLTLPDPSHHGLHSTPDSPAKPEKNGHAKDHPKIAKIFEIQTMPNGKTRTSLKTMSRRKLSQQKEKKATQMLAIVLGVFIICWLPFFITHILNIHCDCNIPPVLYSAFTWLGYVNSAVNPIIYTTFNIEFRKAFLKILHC

For the molecule `CN1C[C@H](C(=O)N2CCN(c3ccc([N+](=O)[O-])cc3)CC2)C[C@@H]2c3cccc4[nH]cc(c34)C[C@H]21`, the dissociation constant (Kd) (as a rule, the constant that tells how readily two partners part at equilibrium) is 3.89 nM in series [1] and 3160 nM in series [2].

`CN1C[C@H](C(=O)N2CCN(c3cccc(=O)n3C)CC2)C[C@@H]2c3cccc4[nH]c(Br)c(c34)C[C@H]21` [ERGOLINE]: the negative-log Kb (pKb) – broadly, −log10 of the Kb, conventionally taken in molar units – in series [3] came to 7.85; in [4], 8.85.

As for `CN1C[C@H](C(=O)N2CCN(c3ccc(F)c(F)c3)CC2)C[C@@H]2c3cccc4[nH]c(Cl)c(c34)C[C@H]21`, the Kd is 0.603 nM in series [1] and 12900 nM in [2].

`CC(C)CCN1C[C@H](C(=O)N2CCN(c3ccccn3)CC2)C[C@@H]2c3cccc4[nH]c(Br)c(c34)C[C@H]21`: the dissociation constant (Kd) in series [1] is 1740 nM.

Turning to `CCCCN1C[C@H](C(=O)N2CCN(c3ccccn3)CC2)C[C@@H]2c3cccc4[nH]c(Br)c(c34)C[C@H]21`, the Kd in series [1] is 1150 nM.

Take `CN1C[C@@H](C(=O)N2CCN(c3ccc4nonc4c3)CC2)C[C@H]2c3cccc4[nH]c(Br)c(c34)C[C@@H]21`: the Kd in [1] was 182 nM; in [5], 501 nM; in [6] it was 5620 nM; in series [7], 23400 nM; in series [8], 3890 nM; in [9], 7240 nM. The same molecule had a dissociation constant (Kd) in series [2] of 12600 nM.

Consider `CN1C[C@H](C(=O)N2CCN(c3ccc4nonc4c3)CC2)C[C@@H]2c3cccc4[nH]c(Br)c(c34)C[C@H]21`, for which the equilibrium dissociation constant (Kd) in series [10] was 28.2 nM; in series [1], 0.372 nM; in [5] it was 1.23 nM; in [11], 77.6 nM; in [6], 3630 nM; in series [7], 6460 nM. Moreover, the dissociation constant Kd in series [8] was 6760 nM; in [15], 126 nM; in series [9], 2340 nM; in series [2], 6460 nM. In addition, the negative-log Kb (pKb) in [3] is 7.62; in [4], 9.42. Moreover, the Kp (in general, tissue or fluid exposure divided by exposure in the circulation) at 10 min in series [12] turned out to be 0.7. Moreover, in [13], the Kp at 24 h came to 1.7. Further, the bioavailability – broadly, dose-corrected exposure relative to a reference, in per cent – in series [14] was determined as 48%.

As for `CN1C[C@H](C(=O)N2CCN(c3ccc([N+](=O)[O-])cc3)CC2)C[C@@H]2c3cccc4[nH]c(Cl)c(c34)C[C@H]21`, the Kd in series [1] is 1.26 nM; in [2], 8910 nM.

`CN1C[C@H](C(=O)N2CCN(c3ccc4nsnc4n3)CC2)C[C@@H]2c3cccc4[nH]c(Cl)c(c34)C[C@H]21`: the equilibrium dissociation constant (Kd) in [1] was 0.24 nM; in series [2] it was 3890 nM.

For `CN1C[C@H](C(=O)N2CCN(c3ccc(Cl)cc3)CC2)C[C@@H]2c3cccc4[nH]c(Br)c(c34)C[C@H]21`, the dissociation constant Kd in [1] is 5.5 nM; in series [2], 2000 nM.

With `CN1C[C@H](C(=O)N2CCN(c3ccc([N+](=O)[O-])cc3)CC2)C[C@@H]2c3cccc4[nH]c(Br)c(c34)C[C@H]21`, the dissociation constant (Kd) is 1.35 nM in series [1] and 7240 nM in series [2].

On to `CCn1c(N2CCN(C(=O)[C@@H]3C[C@@H]4c5cccc6[nH]c(Cl)c(c56)C[C@H]4N(C)C3)CC2)cccc1=O`, for which the equilibrium dissociation constant (Kd) is 0.38 nM in series [1] and 12000 nM in [2].

Regarding `O=C([C@H]1CN[C@@H]2Cc3c(Br)[nH]c4cccc(c34)[C@H]2C1)N1CCN(c2ccccn2)CC1`, the Kd is 170 nM in series [1] and 7940 nM in series [2].

With `CN1C[C@H](C(=O)N2CCN(c3cccc(=O)n3C)CC2)C[C@@H]2c3cccc4[nH]cc(c34)C[C@H]21`, the Kd is 0.759 nM in [1] and 7760 nM in series [2].

With `CN1C[C@H](C(=O)N2CCN(c3ccc(Cl)cc3)CC2)C[C@@H]2c3cccc4[nH]c(Cl)c(c34)C[C@H]21`, the values for the Kd in [1] and in series [2] were 4.17 nM and 5890 nM, respectively.

As for `CN1C[C@H](C(=O)N2CCN(c3ccc4nonc4c3)CC2)C[C@@H]2c3cccc4[nH]c(Cl)c(c34)C[C@H]21`, the dissociation constant Kd in series [1] was 0.389 nM; in series [2] it was 5130 nM.

On to `O=C([C@@H]1C[C@@H]2c3cccc4[nH]c(Br)c(c34)C[C@H]2N(CCCO)C1)N1CCN(c2ccccn2)CC1`, for which the Kd in series [1] was 2340 nM.

For the molecule `CN1C[C@H](C(=O)N2CCN(c3ccccn3)CC2)C[C@@H]2c3cccc4[nH]c(I)c(c34)C[C@H]21`, the Kd in [1] is 16.6 nM; in [2], 5620 nM.

Take `CSc1[nH]c2cccc3c2c1C[C@@H]1[C@@H]3C[C@@H](C(=O)N2CCN(c3ccccn3)CC2)CN1C`: the Kd in [1] was 2.4 nM; in series [2], 8510 nM.

With `CN1C[C@H](C(=O)N2CCN(c3ccccn3)CC2)C[C@@H]2c3cccc4[nH]c(O)c(c34)C[C@H]21`, the Kd in [1] is 240 nM; in [2], 8510 nM.

As for `COCCN1C[C@H](C(=O)N2CCN(c3ccccn3)CC2)C[C@@H]2c3cccc4[nH]c(Br)c(c34)C[C@H]21`, in series [1], binding was characterised by a dissociation constant (Kd) of 1480 nM.

Regarding `CN1C[C@@H](C(=O)N2CCN(c3cccc(=O)n3C)CC2)C[C@H]2c3cccc4[nH]c(Br)c(c34)C[C@@H]21`, the Kd in series [1] was 417 nM; in series [5], 1950 nM; in series [6], 8130 nM; in series [7], 69200 nM; in series [8] it was 9330 nM; in [9] it was 5370 nM. Moreover, the affinity in series [2], expressed as Kd, was 20400 nM.

On to `CN1C[C@H](C(=O)N2CCN(c3cccc(=O)n3C)CC2)C[C@@H]2c3cccc4[nH]c(Cl)c(c34)C[C@H]21`, for which the dissociation constant (Kd) was 0.389 nM in series [1] and 49000 nM in [2].

For the molecule `CN1C[C@H](C(=O)N2CCN(c3ccc(Cl)cc3)CC2)C[C@@H]2c3cccc4[nH]cc(c34)C[C@H]21`, the dissociation constant (Kd) is 19.5 nM in [1] and 2190 nM in [2].

With `CN1C[C@H](C(=O)N2CCN(c3ccccn3)CC2)C[C@@H]2c3cccc4[nH]c(Br)c(c34)C[C@H]21`, the dissociation constant Kd in series [1] was 4.47 nM; in series [2], 16600 nM.

As for `CN1C[C@H](C(=O)N2CCN(c3ccc4nsnc4n3)CC2)C[C@@H]2c3cccc4[nH]c(Br)c(c34)C[C@H]21`, the dissociation constant Kd was 0.372 nM in series [1] and 4570 nM in series [2].

As to `CCn1c(N2CCN(C(=O)[C@@H]3C[C@@H]4c5cccc6[nH]c(Br)c(c56)C[C@H]4N(C)C3)CC2)cccc1=O`, the equilibrium dissociation constant (Kd) in [1] is 0.282 nM; in series [2], 26300 nM.

For the molecule `CN1C[C@H](C(=O)N2CCN(c3ccc4nsnc4n3)CC2)C[C@@H]2c3cccc4[nH]cc(c34)C[C@H]21`, the Kd was 1.02 nM in series [1] and 3020 nM in series [2].

For the molecule `CN1C[C@H](C(=O)N2CCN(c3ccccn3)CC2)C[C@@H]2c3cccc4[nH]cc(c34)C[C@H]21`, the Kd was 14.1 nM in series [1] and 17800 nM in series [2].

Turning to `CN1C[C@H](C(=O)N2CCN(c3ccccn3)CC2)C[C@@H]2c3cccc4[nH]c(S(C)(=O)=O)c(c34)C[C@H]21`, the Kd in [1] is 309 nM; in series [2], 7760 nM.

As for `CN1C[C@H](C(=O)N2CCN(c3ccccn3)CC2)C[C@@H]2c3cccc4[nH]c([S+](C)[O-])c(c34)C[C@H]21` (stereo partly specified), the dissociation constant (Kd) in series [1] is 2630 nM; in [2], 17800 nM.

For the molecule `CN1C[C@H](C(=O)N2CCN(c3ccccn3)CC2)C[C@@H]2c3cccc4[nH]c(Cl)c(c34)C[C@H]21`, in series [1], binding was put at a Kd of 12.9 nM.

With `CCN1C[C@H](C(=O)N2CCN(c3ccc(F)c(F)c3)CC2)C[C@@H]2c3cccc4[nH]c(Br)c(c34)C[C@H]21`, the values for the equilibrium dissociation constant (Kd) in series [1] and in series [2] were 0.977 nM and 13200 nM, respectively.

In the case of `CN1C[C@H](C(=O)N2CCN(c3ccc(F)c(F)c3)CC2)C[C@@H]2c3cccc4[nH]c(Br)c(c34)C[C@H]21`, the equilibrium dissociation constant (Kd) in series [1] is 0.49 nM; in series [2], 8130 nM.
